Assay results as given in US10196364B2, “Pyrimidine carboxamides as sodium channel blockers” (Purdue Pharma L.P., priority 2013, dated 2019).

Target: human Nav1.7 (Homo sapiens, UniProt Q15858)
Experiment: FLIPR sodium dye assay (CoroNa Green AM Na+ dye, primary fluorescence assay) in recombinant Nav1.7/HEK293 cells
Format: cell-based
Settings: Table 6; CoroNa Green AM Na+ dye primary fluorescence assay; read-out: Nav1.7 Activity (μM) FLIPR assay IC50

human Nav1.7, sequence (Q15858 1-1977 isoform Q15858-3): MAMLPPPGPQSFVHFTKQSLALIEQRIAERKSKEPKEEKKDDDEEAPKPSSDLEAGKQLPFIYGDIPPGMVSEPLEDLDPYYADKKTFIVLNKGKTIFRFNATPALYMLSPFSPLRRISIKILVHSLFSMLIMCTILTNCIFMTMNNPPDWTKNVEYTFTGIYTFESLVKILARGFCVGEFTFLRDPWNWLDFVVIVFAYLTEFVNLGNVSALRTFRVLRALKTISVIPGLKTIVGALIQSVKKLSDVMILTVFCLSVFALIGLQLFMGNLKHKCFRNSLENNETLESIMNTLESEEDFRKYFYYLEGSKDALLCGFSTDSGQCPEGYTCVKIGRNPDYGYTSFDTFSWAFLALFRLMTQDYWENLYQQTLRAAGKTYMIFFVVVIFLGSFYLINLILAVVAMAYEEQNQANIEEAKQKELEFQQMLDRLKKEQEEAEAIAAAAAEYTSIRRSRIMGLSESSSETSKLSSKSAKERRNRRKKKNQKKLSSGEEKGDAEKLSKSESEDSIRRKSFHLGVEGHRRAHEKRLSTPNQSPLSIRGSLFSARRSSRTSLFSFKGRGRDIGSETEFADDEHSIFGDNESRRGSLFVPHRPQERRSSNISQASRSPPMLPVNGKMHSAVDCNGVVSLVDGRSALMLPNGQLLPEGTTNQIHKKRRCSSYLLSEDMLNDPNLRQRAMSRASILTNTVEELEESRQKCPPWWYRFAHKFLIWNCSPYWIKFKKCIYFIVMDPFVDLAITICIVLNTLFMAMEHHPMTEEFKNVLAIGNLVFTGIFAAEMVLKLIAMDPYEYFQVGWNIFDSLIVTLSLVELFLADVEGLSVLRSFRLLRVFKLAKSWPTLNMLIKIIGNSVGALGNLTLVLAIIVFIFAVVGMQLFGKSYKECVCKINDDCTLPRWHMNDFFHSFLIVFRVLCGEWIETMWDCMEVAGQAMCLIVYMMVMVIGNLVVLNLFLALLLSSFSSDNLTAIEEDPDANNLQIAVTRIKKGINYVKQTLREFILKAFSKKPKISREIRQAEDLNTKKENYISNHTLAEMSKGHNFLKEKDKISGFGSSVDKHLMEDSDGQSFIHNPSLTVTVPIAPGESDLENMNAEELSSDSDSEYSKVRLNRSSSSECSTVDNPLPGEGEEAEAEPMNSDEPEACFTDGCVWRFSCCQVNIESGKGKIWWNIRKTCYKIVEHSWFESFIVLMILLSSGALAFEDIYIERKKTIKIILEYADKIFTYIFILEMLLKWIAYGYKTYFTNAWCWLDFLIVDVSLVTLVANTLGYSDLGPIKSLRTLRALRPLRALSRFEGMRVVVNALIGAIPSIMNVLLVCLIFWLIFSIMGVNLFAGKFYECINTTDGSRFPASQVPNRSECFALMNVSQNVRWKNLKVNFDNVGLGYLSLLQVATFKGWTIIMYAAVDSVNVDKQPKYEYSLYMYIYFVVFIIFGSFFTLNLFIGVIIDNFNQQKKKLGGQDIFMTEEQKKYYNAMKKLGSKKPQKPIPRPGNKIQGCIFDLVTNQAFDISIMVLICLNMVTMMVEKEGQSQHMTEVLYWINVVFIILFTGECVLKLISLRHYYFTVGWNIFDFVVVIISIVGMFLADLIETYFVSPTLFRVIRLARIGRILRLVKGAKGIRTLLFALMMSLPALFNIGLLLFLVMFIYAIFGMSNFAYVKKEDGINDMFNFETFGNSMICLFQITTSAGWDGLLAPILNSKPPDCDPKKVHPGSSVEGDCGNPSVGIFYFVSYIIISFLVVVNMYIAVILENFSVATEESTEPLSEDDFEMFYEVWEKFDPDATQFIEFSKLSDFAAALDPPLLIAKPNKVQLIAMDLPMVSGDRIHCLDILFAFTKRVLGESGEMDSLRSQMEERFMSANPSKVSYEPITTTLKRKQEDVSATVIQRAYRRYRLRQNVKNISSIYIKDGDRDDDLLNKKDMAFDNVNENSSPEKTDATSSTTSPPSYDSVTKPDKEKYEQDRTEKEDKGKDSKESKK

SMILES	IC50 [µM]
NC(=O)c1cc(N[C@H]2CCNC2=O)nc(-c2ccc(Oc3ccc(C(F)(F)F)c(C4=CCNCC4)c3)cc2)n1 [Cpd No. 205, (S)-6-((2-oxopyrrolidin-3-yl)amino)-2-(4-(3-(1,2,3,6-tetrahydropyridin-4-yl)-4-(trifluoromethyl)phenoxy)phenyl)pyrimidine-4-carboxamide]	> 20
NC(=O)c1cc(N[C@H]2CCNC2=O)nc(-c2ccc(Oc3ccc(C(F)(F)F)cc3C3=CCNCC3)cc2)n1 [Cpd No. 206, (S)-6-((2-oxopyrrolidin-3-yl)amino)-2-(4-(2-(1,2,3,6-tetrahydropyridin-4-yl)-4-(trifluoromethyl)phenoxy)phenyl)pyrimidine-4-carboxamide]	5.28
CN1CC=C(c2cc(C(F)(F)F)ccc2Oc2ccc(-c3nc(N[C@H]4CCNC4=O)cc(C(N)=O)n3)cc2)CC1 [Cpd No. 207, (S)-2-(4-(2-(1-methyl-1,2,3,6-tetrahydropyridin-4-yl)-4-(trifluoromethyl)phenoxy)phenyl)-6-((2-oxopyrrolidin-3-yl)amino)pyrimidine-4-carboxamide]	4.7
CCN(CC)Cc1cc(C(F)(F)F)ccc1Oc1ccc(-c2nc(N[C@H]3CCNC3=O)cc(C(N)=O)n2)cc1 [Cpd No. 208, (S)-2-(4-(2-((diethylamino)-methyl)-4-(trifluoromethyl)-phenoxy)phenyl)-6-((2-oxopyrrolidin-3-yl)amino)pyrimidine-4-carboxamide]	0.75
NC(=O)c1cc(N[C@H]2CCNC2=O)nc(-c2ccc(Oc3ccc(C(F)(F)F)cc3)c(N3CCCCC3)c2)n1 [Cpd No. 209, (S)-6-((2-oxopyrrolidin-3-yl)amino)-2-(3-(piperidin-1-yl)-4-(4-(trifluoromethyl)phenoxy)-phenyl)pyrimidine-4-carboxamide]	> 20
CN1CCN(c2cc(Oc3ccc(-c4nc(N[C@H]5CCNC5=O)cc(C(N)=O)n4)cc3)ccc2C(F)(F)F)CC1 [Cpd No. 210, (S)-2-(4-(3-(4-methylpiperazin-1-yl)-4-(trifluoromethyl)phenoxy)phenyl)-6-((2-oxopyrrolidin-3-yl)amino)pyrimidine-4-carboxamide]	1.94
CN1CCN(c2cc(C(F)(F)F)ccc2Oc2ccc(-c3nc(N[C@H]4CCNC4=O)cc(C(N)=O)n3)cc2)CC1 [Cpd No. 211, (S)-2-(4-(2-(4-methylpiperazin-1-yl)-4-(trifluoromethyl)-phenoxy)phenyl)-6-((2-oxopyrrolidin-3-yl)amino)-pyrimidine-4-carboxamide]	4.16
NC(=O)c1cc(N[C@H]2CCNC2=O)nc(-c2ccc(Nc3ccc(F)cc3)c(N)c2)n1 [Cpd No. 212, (S)-2-(3-amino-4-((4-fluoro-phenyl)amino)phenyl)-6-((2-oxopyrrolidin-3-yl)amino)-pyrimidine-4-carboxamide]	4.73
NC(=O)c1cc(O[C@H]2CCNC2=O)nc(C2CCC(Oc3ccc(C(F)(F)F)cn3)CC2)n1 (stereo partly drawn) [Cpd No. 213]	0.69
NC(=O)c1cc(N[C@H]2CCNC2=O)nc(C2CCC(Oc3ccc(C(F)(F)F)cn3)CC2)n1 (stereo partly drawn) [Cpd No. 214, (S)-6-((2-oxopyrrolidin-3-yl)amino)-2-(4-((5-(trifluoromethyl)pyridin-2-yl)oxy)cyclohexyl)pyrimnidine-4-carboxamide]	0.93
C[C@H](Nc1cc(C(N)=O)nc(Oc2ccc(F)cc2)n1)C(N)=O [compound 104, (S)-6-((1-amino-1-oxopropan-2-yl)amino)-2-(4-fluorophenoxy)pyrimidine-4-carboxamide]	> 20
C[C@H](Nc1cc(C(N)=O)nc(-c2cc(F)c(OCc3ccccc3)cc2F)n1)C(N)=O [compound 105, (S)-6-((1-amino-1-oxopropan-2-yl)amino)-2-(4-(benzyloxy)-2,5-difluorophenyl)pyrimidine-4-carboxamide]	> 20
C[C@H](Nc1cc(C(N)=O)nc(N2CC3CC2CN3c2ccc(F)cc2)n1)C(N)=O (stereo partly drawn) [compound 106, 6-(((S)-1-amino-1-oxopropan-2-yl)amino)-2-(5-(4-fluorophenyl)-2,5-diazabicyclo[2.2.1]heptan-2-yl)pyrimidine-4-carboxamide]	10 to 20
C[C@H](Nc1cc(C(N)=O)nc(N2CCC(Cc3ccccc3)CC2)n1)C(N)=O [compound 107, (S)-6-((1-amino-1-oxopropan-2-yl)amino)-2-(4-benzylpiperidin-1-yl)pyrimidine-4-carboxamide]	1.95
C[C@H](Nc1cc(C(N)=O)nc(-c2ccc(Oc3ccc(F)cc3)c(C(N)=O)c2)n1)C(N)=O [compound 111, (S)-6-((1-amino-1-oxopropan-2-yl)amino)-2-(3-carbamoyl-4-(4-fluorophenoxy)phenyl)pyrimidine-4-carboxamide]	7.88
CC(C)(CO)[C@H](Oc1cc(C(N)=O)nc(-c2ccc(Oc3ccc(C(F)(F)F)cc3)cc2)n1)C(N)=O [compound 120, (S)-6-((1-amino-4-hydroxy-3,3-dimethyl-1-oxobutan-2-yl)oxy)-2-(4-(4-(trifluoromethyl)phenoxy)phenyl) pyrimidine-4-carboxamide]	0.76
NC(=O)c1cc(O[C@@H](CO)C(N)=O)nc(-c2ccc(Oc3ccc(C(F)(F)F)cc3)cc2)n1 [compound 121, (S)-6-((1-amino-3-hydroxy-1-oxopropan-2-yl)oxy)-2-(4-(4-(trifluoromethyl)phenoxy)phenyl)pyrimidine-4-carboxamide]	1.01
C=CCN1CC[C@H](Oc2cc(C(N)=O)nc(-c3ccc(Oc4ccc(F)cc4)cc3)n2)C1=O [compound 122, (S)-6-((1-allyl-2-oxopyrrolidin-3-yl)oxy)-2-(4-(4-fluorophenoxy)phenyl)pyrimidine-4-carboxamide]	0.8
NC(=O)c1cc(O[C@H]2CCN(C[C@H](O)CO)C2=O)nc(-c2ccc(Oc3ccc(F)cc3)cc2)n1 [compound 123, 6-(((S)-1-((S)-2,3-dihydroxypropyl)-2-oxopyrrolidin-3-yl)oxy)-2-(4-(4-fluorophenoxy)phenyl)pyrimidine-4-carboxamide]	0.67
NC(=O)c1cc(O[C@H](C(N)=O)C(O)CO)nc(-c2ccc(Oc3ccc(C(F)(F)F)cc3)cc2)n1 (stereo partly drawn) [compound 124, 6-(((2S)-1-amino-3,4-dihydroxy-1-oxobutan-2-yl)oxy)-2-(4-(4-(trifluoromethyl)phenoxy)phenyl)pyrimidine-4-carboxamide]	0.7
NC(=O)c1cc(-c2ccc(Oc3ccc(OC(F)(F)F)cc3)cc2)nc(N2CCC[C@H]2C(N)=O)n1 [compound 126, (S)-2-(2-carbamoylpyrrolidin-1-yl)-6-(4-(4-(trifluoromethoxy)phenoxy)phenyl)pyrimidine-4-carboxamide]	> 20

The next molecules have a lower IC50 than those just listed; values first:

IC50 [µM]	SMILES
0.29	NC(=O)c1cc(N2CCNCC2C(N)=O)nc(-c2ccc(Oc3ccc(Cl)cc3F)cc2)n1 (stereo not drawn) [compound 108, 6-(2-carbamoylpiperazin-1-yl)-2-(4-(4-chloro-2-fluorophenoxy)phenyl)pyrimnidine-4-carboxamide]
0.11	C[C@H](Nc1cc(C(N)=O)nc(-c2ccc(Oc3ccc4c(c3)CCC4)cc2)n1)C(N)=O [compound 109, (S)-6-((1-amino-1-oxopropan-2-yl)amino)-2-(4-((2,3-dihydro-1H-inden-5-yl)oxy)phenyl)pyrimidine-4-carboxamide]
0.2	C[C@@H](Nc1cc(C(N)=O)nc(-c2ccc(Oc3ccc(C(C)(C)C)cc3)cc2)n1)C(N)=O [compound 110, (R)-6-((1-amino-1-oxopropan-2-yl)amino)-2-(4-(4-(tert-butyl)phenoxy)phenyl)pyrimidine-4-carboxamide]
0.38	CC(C)N1CCN(c2cc(C(N)=O)nc(-c3ccc(Oc4ccc(F)cc4)cc3)n2)C(C(N)=O)C1 (stereo not drawn) [compound 112, 6-(2-carbamoyl-4-isopropylpiperazin-1-yl)-2-(4-(4-fluorophenoxy)phenyl)pyrimidine-4-carboxamide]
0.29	N#Cc1ccc(Oc2ccc(-c3nc(N[C@H]4CCNC4=O)cc(C(N)=O)n3)cc2)cc1 [compound 113, (S)-2-(4-(4-cyanophenoxy)phenyl)-6-((2-oxopyrrolidin-3-yl)amino)pyrimidine-4-carboxamide]
0.33	NC(=O)c1cc(N[C@H]2CCNC2=O)nc(-c2ccc(Oc3ccc(C(F)(F)F)cc3)cc2)n1 [compound 114, (S)-6-((2-oxopyrrolidin-3-yl)amino)-2-(4-(4-(trifluoromethyl)phenoxy)phenyl)pyrimidine-4-carboxamide]
0.3	NC(=O)c1cc(N[C@H]2CCNC2=O)nc(-c2ccc(Oc3ccc4c(c3)OCO4)cc2)n1 [compound 115, (S)-2-(4-(benzo[d][1,3]dioxol-5-yloxy)phenyl)-6-((2-oxopyrrolidin-3-yl)amino)pyrimnidine-4-carboxamide]
0.18	NC(=O)c1cc(N[C@H]2CCNC2=O)nc(-c2ccc(Oc3ccc(OC(F)(F)F)cc3)cc2)n1 [compound 116, (S)-6-((2-oxopyrrolidin-3-yl)amino)-2-(4-(4-(trifluoromethoxy)phenoxy)phenyl)pyrimidine-4-carboxamide]
0.35	NC(=O)c1cc(O[C@H]2CCNC2=O)nc(-c2ccc(Oc3ccc(F)cc3)cc2)n1 [compound 118, (S)-2-(4-(4-fluorophenoxy)phenyl)-6-((2-oxopyrrolidin-3-yl)oxy)pyrimidine-4-carboxamide]
0.12	NC(=O)c1cc(OCCN2CCCC2=O)nc(-c2ccc(Oc3ccc(C(F)(F)F)cc3)cc2)n1 [compound 119, 6-(2-(2-oxopyrrolidin-1-yl)ethoxy)-2-(4-(4-(trifluoromethyl)phenoxy)phenyl)pyrimidine-4-carboxamide]
0.28	NC(=O)c1cc(N2CCC[C@H]2C(N)=O)nc(-c2ccc(Oc3ccc(OC(F)(F)F)cc3)cc2)n1 [compound 125, (S)-6-(2-carbamoylpyrrolidin-1-yl)-2-(4-(4-(trifluoromethoxy)phenoxy)phenyl)pyrimnidine-4-carboxamide]
0.26	NC(=O)c1cc(OCCN2CCNC2=O)nc(-c2ccc(Oc3ccc(C(F)(F)F)cc3)cc2)n1 [compound 127, 6-(2-(2-oxoimidazolidin-1-yl)ethoxy)-2-(4-(4-(trifluoromethyl)phenoxy)phenyl) pyrimnidine-4-carboxamide]
